This note sets out measurements from patent US12473296B2, “Perk inhibiting compounds” (HiberCell, Inc., priority 2019, dated 2025).

Chain of PERK (Q9NZJ5 30-1116): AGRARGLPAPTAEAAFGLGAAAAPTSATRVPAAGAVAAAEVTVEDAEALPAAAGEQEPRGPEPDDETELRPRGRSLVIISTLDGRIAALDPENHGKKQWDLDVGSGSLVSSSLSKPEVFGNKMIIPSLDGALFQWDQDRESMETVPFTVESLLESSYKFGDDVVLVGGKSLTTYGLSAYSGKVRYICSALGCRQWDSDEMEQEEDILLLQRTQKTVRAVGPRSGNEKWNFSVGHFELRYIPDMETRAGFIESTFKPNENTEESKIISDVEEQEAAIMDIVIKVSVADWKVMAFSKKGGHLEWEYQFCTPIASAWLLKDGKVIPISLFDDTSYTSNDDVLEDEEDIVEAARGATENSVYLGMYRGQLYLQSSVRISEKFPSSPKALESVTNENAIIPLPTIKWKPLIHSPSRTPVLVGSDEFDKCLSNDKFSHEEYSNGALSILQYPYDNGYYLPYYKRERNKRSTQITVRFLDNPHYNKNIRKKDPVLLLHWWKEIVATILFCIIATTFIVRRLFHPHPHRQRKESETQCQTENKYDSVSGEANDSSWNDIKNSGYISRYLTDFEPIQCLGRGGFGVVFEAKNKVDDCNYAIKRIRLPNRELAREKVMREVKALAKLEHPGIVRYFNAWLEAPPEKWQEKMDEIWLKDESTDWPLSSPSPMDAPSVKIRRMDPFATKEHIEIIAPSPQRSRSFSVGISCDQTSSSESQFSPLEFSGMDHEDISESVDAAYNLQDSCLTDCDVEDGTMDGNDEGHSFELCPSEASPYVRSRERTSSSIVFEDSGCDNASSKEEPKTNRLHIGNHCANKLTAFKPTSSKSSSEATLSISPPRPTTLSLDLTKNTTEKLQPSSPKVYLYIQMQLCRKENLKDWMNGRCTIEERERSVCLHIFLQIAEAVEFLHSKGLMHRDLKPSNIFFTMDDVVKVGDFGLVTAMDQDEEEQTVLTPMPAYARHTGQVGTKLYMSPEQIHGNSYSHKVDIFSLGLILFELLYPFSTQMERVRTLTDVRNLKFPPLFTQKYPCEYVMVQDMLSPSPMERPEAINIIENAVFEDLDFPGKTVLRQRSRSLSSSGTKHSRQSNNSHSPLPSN

The experiment addresses PERK (Homo sapiens (Human), UniProt Q9NZJ5). The experiment is described as follows: PERK cellular assay (TR-FRET, HEK293-EGFP-eIF2α cells, tunicamycin-induced ER stress). In kind it is cell-based. The note with it: tunicamycin 2 hours, read-out: Cellular IC50 (μM) (EIF2a). As to the method: Stable cell lines were created in HEK293 cells using lentiviral particles harboring an expression vector for GFP-eIF2α. Cells were selected using puromycin and enriched using fluorescence activated cell sorting against GFP. HEK293-EGFP-eIF2α cells were plated at 5000 cells/well in 384-well assay plates and incubated overnight at 37° C., 5% CO2. Inhibitor compounds were added to the wells by Echo acoustic dispensing and incubated for 30 minutes at 37° C., 5% CO2 prior to induction of ER stress by addition of tunicamycin to […] for 2 hours. Cells were lysed and TR-FRET was measured in an EnVision plate reader (PerkinElmer). FRET ratio data was normalized to signal from lysates treated with DMSO vehicle control and plotted as percent inhibition against 10-point; 3-fold dilution series of inhibitors. IC50 values were calculated using 4-parameter logistical fitting in XLFit.
As for `CCc1cc(NC(=O)C(O)c2ccccc2C)ccc1-c1cnc(N)c(C(=O)NC(C)C)c1` (single isomer, unassigned) [Example 104, 2-amino-5-(2-ethyl-4-(2-hydroxy-2-(o-tolyl)acetamido)phenyl)-N-isopropylnicotinamide], the IC50 is 0.051 to 0.1 µM.
On to `CCc1cc(NC(=O)C(O)c2ccccc2C)ccc1-c1cnc(N)c(C(=O)NC(C)C)c1` (single isomer, unassigned) [Example 105, 2-amino-5-(2-ethyl-4-(2-hydroxy-2-(o-tolyl)acetamido)phenyl)-N-isopropylnicotinamide], for which the half-maximal inhibitory concentration (IC50) fell in the range of 0.501 to 1 µM.
Next, `Cc1cc(NC(=O)C(O)c2cc(F)cc(F)c2)ccc1-c1cnc(N)c(C(=O)NC2CCOCC2)n1` (single isomer, unassigned) [Example 144, 3-amino-6-(4-(2-(3,5-difluorophenyl)-2-hydroxyacetamido)-2-methylphenyl)-N-(tetrahydro-2H-pyran-4-yl)pyrazine-2-carboxamide]: 0.501 to 1 µM.
Next, `Cc1cc(NC(=O)C(O)c2cc(F)cc(F)c2)ccc1-c1cnc(N)c(C(=O)NC2CCOCC2)n1` (single isomer, unassigned) [Example 145, 3-amino-6-(4-(2-(3,5-difluorophenyl)-2-hydroxyacetamido)-2-methylphenyl)-N-(tetrahydro-2H-pyran-4-yl)pyrazine-2-carboxamide]: 0.051 to 0.1 µM; `COCCNC(=O)c1nc(-c2ccc(NC(=O)C(O)c3cc(F)cc(F)c3)cc2C)cnc1N` (single isomer, unassigned) [Example 147, 3-amino-6-(4-(2-(3,5-difluorophenyl)-2-hydroxyacetamido)-2-methylphenyl)-N-(2-methoxyethyl) pyrazine-2-carboxamide]: 0.026 to 0.05 µM; `COCCNC(=O)c1nc(-c2ccc(NC(=O)C(O)c3cc(F)cc(F)c3)cc2C)cnc1N` (single isomer, unassigned) [Example 148, 3-amino-6-(4-(2-(3,5-difluorophenyl)-2-hydroxyacetamido)-2-methylphenyl)-N-(2-methoxyethyl) pyrazine-2-carboxamide]: 0.501 to 1 µM.
Under `Cc1cc(NC(=O)C(O)c2cc(F)cc(F)c2)ccc1-c1cnc(N)c(C(=O)NC2CCOCC2)c1` (stereo not drawn) [Example 50, 2-amino-5-(4-(2-(3,5-difluorophenyl)-2-hydroxyacetamido)-2-methylphenyl)-N-(tetrahydro-2H-pyran-4-yl)nicotinamide] stands 0.051 to 0.1 µM; under `Cc1cc(NC(=O)C(O)c2cc(F)cc(F)c2)ccc1-c1cnc(N)c(C(=O)NC2CCOCC2)c1` (stereo not drawn) [Example 51, 2-amino-5-(4-(2-(3,5-difluorophenyl)-2-hydroxyacetamido)-2-methylphenyl)-N-(tetrahydro-2H-pyran-4-yl)nicotinamide], 0.501 to 1 µM; under `COCCNC(=O)c1cc(-c2ccc(NC(=O)C(O)c3cc(F)cc(F)c3)cc2C)cnc1N` (stereo not drawn) [Example 54, 2-amino-5-(4-(2-(3,5-difluorophenyl)-2-hydroxyacetamido)-2-methylphenyl)-N-(2-methoxyethyl) nicotinamide], 0.051 to 0.1 µM.
As to `COCCNC(=O)c1cc(-c2ccc(NC(=O)C(O)c3cc(F)cc(F)c3)cc2C)cnc1N` (stereo not drawn) [Example 55, 2-amino-5-(4-(2-(3,5-difluorophenyl)-2-hydroxyacetamido)-2-methylphenyl)-N-(2-methoxyethyl) nicotinamide], the IC50 was in the range of 1 to 2 µM.
For the compound `Cc1cc(NC(=O)C(O)c2ccccc2C)ccc1-c1cnc(N)c(C(=O)NC(C)C)c1` (stereo not drawn) [Example 64, 2-amino-5-(4-(2-hydroxy-2-(o-tolyl)acetamido)-2-methylphenyl)-N-isopropylnicotinamide], the IC50 was in the range of 0.101 to 0.25 µM.
Under `Cc1cc(NC(=O)C(O)c2ccccc2C)ccc1-c1cnc(N)c(C(=O)NC(C)C)c1` (stereo not drawn) [Example 65, 2-amino-5-(4-(2-hydroxy-2-(o-tolyl)acetamido)-2-methylphenyl)-N-isopropylnicotinamide] stands 2 to 3 µM.
